The structures appear in SMILES notation.

This experiment has as its target T1, bromodomain BRD4 (44-168), BRD4 (333-460), and BRD4 (1-477 or 44-460) (Homo sapiens, UniProt O60885).
T1 construct: BRD4(44-168), BRD4(333-460), BRD4(44-460), BRD4(1-477), O60885-1; fused on or other part: N-terminal BirA biotinylation motif, biotinylated; The TVMV-cleavable His6 tag is removed, except in some BRD4(44-460) runs detected with anti-His terbium cryptate
The experiment can be described thus: Time Resolved Fluorescence Resonance Energy Transfer (TR-FRET) binding assay. Conditions: one of the FRET assays described. In general terms: TR-FRET usually uses a lanthanide donor and a delayed reading to cut background.

With `CNC(=O)c1cc(-c2c(C)noc2C)cc2c1c1cc(C(=O)N3CC(F)(F)C3)ccc1n2C(C)c1ccccc1` (stereo not shown) [Example 119, 6-((3,3-difluoro-1-azetidinyl)carbonyl)-2-(3,5-dimethyl-4-isoxazolyl)-N-methyl-9-(1-phenylethyl)-9H-carbazole-4-carboxamide], the 50% inhibitory concentration (IC50) was under 50 nM.

`CNC(=O)c1cc(-c2c(C)noc2C)cc2c1c1cc(C(=O)N3CC(F)C3)ccc1n2Cc1ccccn1` [Example 116, 2-(3,5-dimethylisoxazol-4-yl)-6-(3-fluoroazetidine-1-carbonyl)-N-methyl-9-(pyridin-2-ylmethyl)-9H-carbazole-4-carboxamide] registered an IC50 of under 50 nM.

In turn, `CNC(=O)c1cc(-c2c(C)noc2C)cc2c1c1cc(C(=O)N3CC(F)C3)ccc1n2Cc1ccc(Cl)cc1` [Example 102, 9-(4-chlorobenzyl)-2-(3,5-dimethylisoxazol-4-yl)-6-(3-fluoroazetidine-1-carbonyl)-N-methyl-9H-carbazole-4-carboxamide] registered a concentration for half-maximal inhibition (IC50) of under 50 nM.

Take `COC(=O)Nc1ccc2c(c1)c1c(C(N)=O)cc(-c3c(C)noc3C)cc1n2Cc1ccccc1` [Example 144, methyl (9-benzyl-5-carbamoyl-7-(3,5-dimethyl-4-isoxazolyl)-9H-carbazol-3-yl)carbamate]: the IC50 was under 50 nM.

As for `CNC(=O)c1cc(-c2c(C)noc2C)cc2c1c1cc(C(=O)N3CC(F)C3)ccc1n2Cc1ccc(Cl)cc1F` [Example 110], the IC50 is under 50 nM.

In the case of `Cc1noc(C)c1-c1ccc2c3cc(C(=O)N4CC(C)OC(C)C4)ccc3n(Cc3cccc(Cl)c3)c2c1` (stereo not shown) [Example 13], the half-inhibitory concentration (IC50) was under 500 nM.

Regarding `Cc1noc(C)c1-c1ccc2c3cc(C(=O)N4CC(C)OC(C)C4)ccc3n(CCF)c2c1` (stereo not shown) [Example 6], the half-inhibitory concentration (IC50) is under 500 nM.

Take `CNC(=O)c1cc(-c2c(C)noc2C)cc2c1c1cc(C(=O)N3CC(F)C3)ccc1n2Cc1ccc(F)cc1F` [Example 106]: the half-maximal inhibitory concentration (IC50) was under 500 nM.

Turning to `Cc1noc(C)c1-c1cc(C(N)=O)c2c3cc(C(=O)N4CCC(C)CC4)ccc3n(Cc3ccccc3)c2c1` [Example 74], the concentration for half-maximal inhibition (IC50) was under 50 nM.

In turn, `Cc1noc(C)c1-c1ccc2c3cc(C(=O)N4CC(C)OC(C)C4)ccc3n(CC3CC3)c2c1` (stereo not shown) [Example 5] displayed an IC50 of under 500 nM.

In turn, `CNC(=O)c1cc(-c2c(C)noc2C)cc2c1c1cc(C(=O)N3CC(F)C3)ccc1n2Cc1cccc(F)c1F` [Example 107] showed an IC50 of under 50 nM.

In the case of `CCNC(=O)c1cc(-c2c(C)noc2C)cc2c1c1cc(C(=O)N3CC(F)C3)ccc1n2Cc1ccc(F)cc1` [Example 126, 2-(3,5-dimethyl-4-isoxazolyl)-N-ethyl-6-((3-fluoro-1-azetidinyl)carbonyl)-9-(4-fluorobenzyl)-9H-carbazole-4-carboxamide], the concentration for half-maximal inhibition (IC50) is under 50 nM.

Molecule `CNC(=O)c1cc(-c2c(C)noc2C)cc2c1c1cc(C(=O)N3CC(F)C3)ccc1n2C(C)c1ccc(Cl)cc1` (stereo not shown) [Example 111] gave an IC50 of under 50 nM.

`Cc1noc(C)c1-c1ccc2c3cc(C(=O)N4CC(C)OC(C)C4)ccc3n(Cc3ccccc3)c2c1` (stereo not shown) [Example 9] returned a concentration for half-maximal inhibition (IC50) of under 50 nM.

Molecule `Cc1cccc(Cn2c3ccc(C(=O)N4CC(C)OC(C)C4)cc3c3ccc(-c4c(C)noc4C)cc32)c1` (stereo not shown) [Example 20] displayed a half-maximal inhibitory concentration (IC50) of under 500 nM.

`CNC(=O)c1cc(-c2c(C)noc2C)cc2c1c1cc(N3CCCOC3=O)ccc1n2Cc1ccc(Cl)c(F)c1` [Example 172, 9-(4-chloro-3-fluorobenzyl)-2-(3,5-dimethyl-4-isoxazolyl)-N-methyl-6-(2-oxo-1,3-oxazinan-3-yl)-9H-carbazole-4-carboxamide]: the IC50 is under 50 nM.

Take `COc1ccc2c(c1)c1c(C(N)=O)cc(-c3c(C)noc3C)cc1n2C(C)c1ccccc1` (single isomer, unassigned) [Example 180, 2-(3,5-dimethyl-4-isoxazolyl)-6-methoxy-9-(1-phenylethyl)-9H-carbazole-4-carboxamide]: the half-maximal inhibitory concentration (IC50) is under 50 nM.

In turn, `Cc1noc(C)c1-c1cc(C(N)=O)c2c3cc(S(C)(=O)=O)ccc3n(Cc3ccccc3)c2c1` [Example 181, 9-benzyl-2-(3,5-dimethyl-4-isoxazolyl)-6-(methylsulfonyl)-9H-carbazole-4-carboxamide] returned an IC50 of under 50 nM.

`Cc1noc(C)c1-c1cc(C(N)=O)c2c3cc(N4CC(C)(C)COC4=O)ccc3n(Cc3ccccc3)c2c1` [Example 160, 9-benzyl-2-(3,5-dimethyl-4-isoxazolyl)-6-(5,5-dimethyl-2-oxo-1,3-oxazinan-3-yl)-9H-carbazole-4-carboxamide]: the IC50 is under 50 nM.

As to `Cc1noc(C)c1-c1cc(C(N)=O)c2c3cc(C(=O)N4CC(F)C4)ccc3n(C(C)c3ccccc3)c2c1` (stereo not shown) [Example 85, 2-(3,5-dimethyl-4-isoxazolyl)-6-((3-fluoro-1-azetidinyl)carbonyl)-9-(1-phenylethyl)-9H-carbazole-4-carboxamide], the IC50 is under 50 nM.

For the molecule `Cc1noc(C)c1-c1cc(C(=O)NC2CC2)c2c3cc(C(=O)N4CC(F)C4)ccc3n(Cc3ccc(F)cc3)c2c1` [Example 125, N-cyclopropyl-2-(3,5-dimethyl-4-isoxazolyl)-6-((3-fluoro-1-azetidinyl)carbonyl)-9-(4-fluorobenzyl)-9H-carbazole-4-carboxamide], the IC50 was under 50 nM.

For the molecule `Cc1noc(C)c1-c1cc(C#N)c2c3ccc(C(=O)O)cc3n(C(c3ccccc3)c3ccccc3)c2c1` [Example 193, 5-Cyano-7-(3,5-dimethyl-4-isoxazolyl)-9-(diphenylmethyl)-9H-carbazole-2-carboxylic acid], the IC50 was under 50 nM.

As to `Cc1csc(Cn2c3ccc(C(=O)N4CCC(F)C4)cc3c3c(C(N)=O)cc(-c4c(C)noc4C)cc32)n1` (stereo not shown) [Example 83], the IC50 is under 50 nM.

Regarding `CNC(=O)c1cc(-c2c(C)noc2C)cc2c1c1cc(N3CCCOC3=O)ccc1n2Cc1ccc(Cl)cc1` [Example 170, 9-(4-chlorobenzyl)-2-(3,5-dimethyl-4-isoxazolyl)-N-methyl-6-(2-oxo-1,3-oxazinan-3-yl)-9H-carbazole-4-carboxamide], the half-inhibitory concentration (IC50) is under 50 nM.

Take `Cc1noc(C)c1-c1cc(C(N)=O)c2c3cc(N4CC(C)(C)COC4=O)ccc3n(Cc3ccc(F)cc3)c2c1` [Example 153, 2-(3,5-dimethyl-4-isoxazolyl)-6-(5,5-dimethyl-2-oxo-1,3-oxazinan-3-yl)-9-(4-fluorobenzyl)-9H-carbazole-4-carboxamide]: the half-inhibitory concentration (IC50) was under 50 nM.

`Cc1noc(C)c1-c1cc(C#N)c2c3cc(C(=O)N4CC(F)C4)ccc3n(Cc3cccc(F)c3)c2c1` [Example 121, 2-(3,5-dimethyl-4-isoxazolyl)-6-((3-fluoro-1-azetidinyl)carbonyl)-9-(3-fluorobenzyl)-9H-carbazole-4-carbonitrile] had an IC50 of under 500 nM.

`Cc1noc(C)c1-c1cc(C(N)=O)c2c3ccc(C(=O)N(C)C)cc3n(C(c3ccccc3)c3ccccc3)c2c1` [Example 195, 7-(3,5-Dimethyl-4-isoxazolyl)-9-(diphenylmethyl)-N˜2˜,N˜2˜-dimethyl-9H-carbazole-2,5-dicarboxamide] returned an IC50 of under 50 nM.

Consider `Cc1ccc(Cn2c3ccc(C(=O)N4CC(C)OC(C)C4)cc3c3ccc(-c4c(C)noc4C)cc32)cc1` (stereo not shown) [Example 21], for which the IC50 is under 500 nM.

As for `Cc1noc(C)c1-c1cc(C(N)=O)c2c3cc(NC(=O)N4CCOCC4)ccc3n(Cc3ccccc3)c2c1` [Example 146, 9-benzyl-2-(3,5-dimethyl-4-isoxazolyl)-6-((4-morpholinylcarbonyl)amino)-9H-carbazole-4-carboxamide], the IC50 was under 50 nM.

Consider `Cc1noc(C)c1-c1cc(C(=O)N(C)C)c2c3cc(C(=O)N4CC(F)(F)C4)ccc3n(C(C)c3ccccc3)c2c1` (stereo not shown) [Example 120, 6-((3,3-difluoro-1-azetidinyl)carbonyl)-2-(3,5-dimethyl-4-isoxazolyl)-N,N-dimethyl-9-(1-phenylethyl)-9H-carbazole-4-carboxamide], for which the IC50 is under 500 nM.

In turn, `Cc1noc(C)c1-c1cc(C(N)=O)c2c3cc(C(=O)N4CC(F)C4)ccc3n(C(C)c3cccc(C(F)(F)F)c3)c2c1` (stereo not shown) [Example 88] displayed an IC50 of under 50 nM.

For the molecule `CNC(=O)c1cc(-c2c(C)noc2C)cc2c1c1cc(C(=O)N3CC(F)C3)ccc1n2Cc1cccc(F)c1` [Example 104], the IC50 is under 50 nM.

For the molecule `Cc1noc(C)c1-c1cc(C(N)=O)c2c3ccc(C(C)(C)O)c(F)c3n(C(CCC(F)(F)F)c3ccccc3)c2c1` (single isomer, unassigned) [Example 231, 2-(dimethyl-1,2-oxazol-4-yl)-8-fluoro-7-(2-hydroxypropan-2-yl)-9-[4,4,4-trifluoro-1-phenylbutyl]-9H-carbazole-4-carboxamide], the concentration for half-maximal inhibition (IC50) was under 50 nM.

As to `Cc1noc(C)c1-c1cc(C(N)=O)c2c3cc(N4CCCCS4(=O)=O)ccc3n(Cc3ccc(F)cc3)c2c1` [Example 175, 2-(3,5-dimethyl-4-isoxazolyl)-6-(1,1-dioxido-1,2-thiazinan-2-yl)-9-(4-fluorobenzyl)-9H-carbazole-4-carboxamide], the IC50 was under 50 nM.

As for `Cc1noc(C)c1-c1cc(C(N)=O)c2c3ccc(C(C)(C)O)c(F)c3n(C(c3ccc(F)cc3)C3CCOCC3)c2c1` (single isomer, unassigned) [Example 224, 2-(Dimethyl-1,2-oxazol-4-yl)-8-fluoro-9-[(4-fluorophenyl)(oxan-4-yl)methyl]-7-(2-hydroxypropan-2-yl)-9H-carbazole-4-carboxamide], the IC50 was under 50 nM.

As for `Cc1noc(C)c1-c1cc(C(N)=O)c2c3cc(N4CCCOC4=O)ccc3n(Cc3ccc(Cl)cc3)c2c1` [Example 157, 9-(4-chlorobenzyl)-2-(3,5-dimethyl-4-isoxazolyl)-6-(2-oxo-1,3-oxazinan-3-yl)-9H-carbazole-4-carboxamide], the IC50 was under 50 nM.

In the case of `Cc1noc(C)c1-c1cc(C(N)=O)c2c3cc(NC(=O)C4CCOCC4)ccc3n(Cc3ccccc3)c2c1` [Example 145, 9-benzyl-2-(3,5-dimethyl-4-isoxazolyl)-6-((tetrahydro-2H-pyran-4-ylcarbonyl)amino)-9H-carbazole-4-carboxamide], the IC50 is under 50 nM.

What is called IC50 is the concentration needed to halve the response being measured. The low end stands for greater potency in that assay, the high end for weaker potency in that assay.

Values taken from US9492460B2, “Carbazole compounds useful as bromodomain inhibitors” (Bristol-Myers Squibb Company, priority 2013, dated 2016).
